Source: ChEMBL document CHEMBL1152586, “Neuraminidase inhibitory activities of flavonols isolated from Rhodiola rosea roots and their in vitro anti-influenza viral activities” (Bioorg Med Chem, 2009)
Activity calls are given as the source filed them. The rule behind the calls is not given here.

Tests used:
Neuraminidase = Neuraminidase (Influenza A virus, UniProt B4URF0); test: Noncompetitive inhibition of recombinant influenza A virus rvH1N1 A/Bervig_Mission/1/18 neuraminidase
[1] = Cytotoxicity against MDCK cells after 48 hrs by MTT assay; type: cell-based, Canis lupus familiaris; conditions: dog
Influenza A virus [2] = test: Antiviral activity against influenza A virus H1N1 A/PR/8/34 infected in MDCK cells assessed as reduction in virus-induced cytopathic effect; type: functional, organism-based; conditions: A/Puerto Rico/8/1934(H1N1)
Influenza A virus [3] = test: Antiviral activity against influenza A virus H9N2 A/Chicken/Korea/MS96/96 infected in MDCK cells assessed as reduction in virus-induced cytopathic effect; type: functional, organism-based; conditions: A/Chicken/Korea/MS96/96, MDCK
[4] = Selectivity index, ratio of CC50 for MDCK cells to EC50 for influenza virus H1N1 A/PR/8/34; type: toxicity, cell-based; conditions: dog, read-out: Ratio CC50/EC50
[5] = Selectivity index, ratio of CC50 for MDCK cells to EC50 for influenza virus H9N2 A/Chicken/Korea/MS96/96; type: toxicity, cell-based; conditions: dog, read-out: Ratio CC50/EC50
Sialidase = target: T1, Sialidase (Clostridium perfringens, UniProt P10481); test: Inhibition of Clostridium perfringens neuraminidase
T1 sequence (P10481 whole entry): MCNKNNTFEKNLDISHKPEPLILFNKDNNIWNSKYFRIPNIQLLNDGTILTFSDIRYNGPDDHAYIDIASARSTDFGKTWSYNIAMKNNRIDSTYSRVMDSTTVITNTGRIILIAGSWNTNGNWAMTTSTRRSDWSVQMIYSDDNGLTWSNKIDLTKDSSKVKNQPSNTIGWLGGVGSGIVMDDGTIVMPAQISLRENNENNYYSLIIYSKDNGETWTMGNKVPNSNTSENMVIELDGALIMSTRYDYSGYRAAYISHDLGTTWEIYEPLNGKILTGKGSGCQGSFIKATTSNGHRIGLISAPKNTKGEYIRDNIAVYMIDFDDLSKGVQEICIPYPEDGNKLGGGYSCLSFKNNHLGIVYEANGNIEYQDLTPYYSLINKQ

Influenza A virus [6] = test: Antiviral activity against influenza A virus H1N1 A/PR/8/34 infected in MDCK cells assessed as reduction in fluorescence positive cells at 50 uM immunofluorescence assay; type: functional, organism-based; conditions: A/Puerto Rico/8/1934(H1N1)

SMILES | IC50 (Neuraminidase) | Ki (Neuraminidase) | CC50 at 48 h [1] | EC50 (Influenza A virus [2]) | EC50 (Influenza A virus [3]) | selectivity ratio [4] | selectivity ratio [5] | IC50 (Sialidase) | Activity (Influenza A virus [6])
O=c1cc(-c2ccc(O)cc2)oc2cc(O)cc(O)c12 [APIGENIN] | 33.4 µM | 37.1 µM | > 300 µM | 60.4 µM | 42.7 µM | > 4.97 | > 7.03 |  | 
O=c1cc(-c2ccc(O)cc2)oc2cc(O[C@@H]3O[C@H](CO)[C@@H](O)[C@H](O)[C@H]3O)cc(O)c12 [APIGETRIN] | 46.9 µM | 53.8 µM |  |  |  |  |  | 39.3 µM | 
O=c1c(O[C@@H]2O[C@H](CO)[C@@H](O)[C@H](O)[C@H]2O)c(-c2ccc(O)cc2)oc2cc(O)cc(O)c12 [ASTRAGALIN] | 38.4 µM | 33 µM | > 300 µM | 40 µM | 61.9 µM | > 7.5 | > 4.85 | 29.4 µM | 
O=c1c(O)c(-c2ccc(O)c(O)c2)oc2c(O)c(O)cc(O)c12 [GOSSYPETIN] | 2.6 µM | 7.7 µM | 283 µM | 43 µM | 36.3 µM | 6.58 | 7.8 | 0.8 µM | 
O=c1c(O)c(-c2ccc(O)cc2)oc2c(O)c(O)cc(O)c12 [HERBACETIN] | 8.9 µM | 13.7 µM | 294 µM | 35 µM | 23 µM | 8.39 | 12.8 | 1.4 µM | 
O=c1c(O)c(-c2ccc(O)cc2)oc2cc(O)cc(O)c12 [KAEMPFEROL] | 11.2 µM | 21.1 µM | > 300 µM | 30.2 µM | 18.5 µM | > 9.93 | > 16.2 | 8 µM | Active
O=c1c(O[C@@H]2O[C@H](CO)[C@@H](O)[C@H](O)[C@H]2O)c(-c2ccc(O)cc2)oc2c(O[C@@H]3O[C@H](CO)[C@@H](O)[C@H](O)[C@H]3O)c(O)cc(O)c12 [LINOCINAMARIN] | 44.2 µM | 63.8 µM | > 300 µM | 99.1 µM | 100 µM | > 3.03 | > 3 | 39.1 µM | 
O=c1cc(-c2ccc(O)c(O)c2)oc2cc(O)cc(O)c12 [LUTEOLIN] | 11 µM | 19.6 µM | 165 µM | 84 µM | 103 µM | 1.96 | 1.6 | 4.3 µM | 
C[C@@H]1O[C@@H](OC[C@H]2O[C@@H](Oc3c(-c4ccc(O)cc4)oc4cc(O)cc(O)c4c3=O)[C@H](O)[C@@H](O)[C@@H]2O)[C@H](O)[C@H](O)[C@H]1O [NICOTIFLOROSIDE] | 31.7 µM | 32.7 µM | > 300 µM | 40.1 µM | 72.9 µM | > 7.48 | > 4.12 | 55.5 µM | 
CCOC(=O)C1=C[C@@H](OC(CC)CC)[C@H](NC(C)=O)[C@@H](N)C1 [OSELTAMIVIR] |  |  | > 300 µM | 8.3 µM | 6.25 µM |  |  |  | Active
O=c1c(O)c(-c2ccc(O)c(O)c2)oc2cc(O)cc(O)c12 [QUERCETIN] | 2.2 µM | 3.8 µM | 254 µM | 43.1 µM | 134 µM | 5.89 | 1.9 | 1.7 µM | 
COc1cc([C@H]2Oc3cc(O)c4c(=O)c(O)c(-c5ccc(O)cc5)oc4c3O[C@@H]2CO)ccc1O [RHODIOLININ] | 10.3 µM | 14.1 µM | > 300 µM | 41.7 µM | 29.3 µM | > 7.19 | > 10.2 | 6.1 µM | 
C[C@@H]1OC(Oc2cc(O)c3c(=O)c(O)c(-c4ccc(O)cc4)oc3c2O)[C@H](O)[C@H](O)[C@H]1O (stereo partly specified) [RHODIONIN] | 32.2 µM | 59.4 µM | > 300 µM | 74.8 µM | 49.6 µM | > 4.01 | > 6.05 | 40.6 µM | 
C[C@@H]1O[C@@H](Oc2cc(O)c3c(=O)c(O)c(-c4ccc(O)cc4)oc3c2O)[C@H](O)[C@H](O[C@@H]2O[C@H](CO)[C@@H](O)[C@H](O)[C@H]2O)[C@H]1O [RHODIOSIN] | 56.5 µM | 64.1 µM | 297 µM |  |  | 3.63 | 8.47 | 56.9 µM | 
C[C@@H]1O[C@@H](Oc2cc(O)c3c(=O)c(O)c(-c4ccc(O)cc4)oc3c2O)[C@H](O)[C@H](O[C@H]2O[C@@H](CO)[C@H](O)[C@@H](O)[C@@H]2O)[C@H]1O [RHODIOSIN] |  |  |  | 81.9 µM | 35.1 µM |  |  |  | 
C[C@@H]1O[C@@H](OC[C@H]2O[C@@H](Oc3c(-c4ccc(O)c(O)c4)oc4cc(O)cc(O)c4c3=O)[C@H](O)[C@@H](O)[C@@H]2O)[C@H](O)[C@H](O)[C@H]1O [RUTIN] | 34.4 µM | 33.8 µM |  |  |  |  |  | 30.9 µM | 
